From US10597388B2, “Pyridazinone herbicides” (FMC CORPORATION, priority 2014, dated 2020)

Columns and labels:
Test in all cases: Test D controlled growth environment herbicide test, pre- and postemergence
Assay type in all cases: in vivo
[1] = system: field poppy (Papaver rhoeas)
Summary of the method: (§1)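 Pre-emergence: seeds sown in silt loam soil were sprayed with compound in a non-phytotoxic solvent mix containing surfactant. Post-emergence: plants at 2 to 18 cm (1- to 4-leaf stage) in peat moss/vermiculite medium got the same formulation. Visual 0–100 rating versus controls after 14 to 21 d.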

[2] = system: bluegrass (annual bluegrass, Poa annua)
Summary of the method: as §1

[3] = system: Russian thistle (Salsola kali)
Summary of the method: as §1

[4] = system: buckwheat, wild (wild buckwheat, Polygonum convolvulus)
Summary of the method: as §1

[5] = system: kochia (Kochia scoparia)
Summary of the method: as §1

[6] = system: chickweed (common chickweed, Stellaria media)
Summary of the method: as §1

[7] = system: pigweed (Amaranthus retroflexus)
Summary of the method: as §1

[8] = system: canarygrass (Phalaris minor)
Summary of the method: as §1

[9] = system: galium (catchweed bedstraw, Galium aparine)
Summary of the method: as §1

[10] = system: ryegrass, Italian (Italian ryegrass, Lolium multiflorum)
Summary of the method: as §1

[11] = system: wheat, winter (winter wheat, Triticum aestivum)
Summary of the method: as §1

[12] = system: blackgrass (Alopecurus myosuroides)
Summary of the method: as §1

[13] = system: foxtail, green (green foxtail, Setaria viridis)
Summary of the method: as §1

[14] = Postemergence, 31 g ai/ha, scale 0 to 100 (0 no effect, 100 complete control)
[15] = Postemergence, 125 g ai/ha, visual rating on scale 0 (no effect) to 100 (complete control), 14 to 21 d
[16] = Postemergence, 250 g ai/ha, scale 0 to 100 (0 no effect, 100 complete control)
[17] = Preemergence, 125 g ai/ha, scale 0 to 100 (0 no effect, 100 complete control)
[18] = Preemergence, 250 g ai/ha, scale 0 to 100 (0 no effect, 100 complete control)
[19] = postemergence, 62 g ai/ha, scale 0 to 100, 0 no effect, 100 complete control
[20] = Preemergence, 62 g ai/ha, scale 0 to 100 (0 no effect, 100 complete control)

CCOC(=O)Oc1c(C)nn(C)c(=O)c1-c1c(C)sc2c(C)cc(C)cc12 [Compound 83]
Field Poppy plant response rating [1, 14]: 100
Plant response rating, Field Poppy [1, 15]: 100
Plant response rating, Field Poppy [1, 16]: 100
Plant response rating (scale of 0 to 100), Field Poppy ([1]; Preemergence, 31 g ai/ha): 100
Plant response rating (scale of 0 to 100), Field Poppy ([1]; Preemergence, 62 g ai/ha): 100
Plant response rating, Field Poppy [1, 17]: 100
Plant response rating, Field Poppy [1, 18]: 100
Plant response rating, Field Poppy [1, 19]: 100
Bluegrass plant response rating [2, 14]: 0
Plant response rating, Bluegrass [2, 15]: 15
Plant response rating, Bluegrass [2, 16]: 25
Plant response rating (scale of 0 to 100), Bluegrass ([2]; Preemergence, 31 g ai/ha): 15
Plant response rating, Bluegrass [2, 20]: 15
Plant response rating, Bluegrass [2, 17]: 35
Plant response rating, Bluegrass [2, 18]: 35
Plant response rating, Bluegrass [2, 19]: 10
Russian Thistle plant response rating [3, 14]: 75
Plant response rating, Russian Thistle [3, 15]: 80
Plant response rating, Russian Thistle [3, 16]: 85
Plant response rating (scale of 0 to 100), Russian Thistle ([3]; Preemergence, 31 g ai/ha): 0
Plant response rating (scale of 0 to 100), Russian Thistle ([3]; Preemergence, 62 g ai/ha): 0
Plant response rating, Russian Thistle [3, 17]: 15
Plant response rating, Russian Thistle [3, 18]: 0
Plant response rating, Russian Thistle [3, 19]: 80
Buckwheat, Wild plant response rating [4, 14]: 100
Plant response rating, Buckwheat, Wild [4, 15]: 100
Plant response rating, Buckwheat, Wild [4, 16]: 100
Plant response rating (scale of 0 to 100), Buckwheat, Wild ([4]; Preemergence, 31 g ai/ha): 0
Plant response rating, Buckwheat, Wild [4, 20]: 0
Plant response rating, Buckwheat, Wild [4, 17]: 0
Plant response rating, Buckwheat, Wild [4, 18]: 25
Plant response rating, Buckwheat, Wild [4, 19]: 100
Kochia plant response rating [5, 14]: 70
Plant response rating, Kochia [5, 15]: 80
Plant response rating, Kochia [5, 16]: 90
Plant response rating (scale of 0 to 100), Kochia ([5]; Preemergence, 31 g ai/ha): 0
Plant response rating (scale of 0 to 100), Kochia ([5]; Preemergence, 62 g ai/ha): 0
Plant response rating, Kochia [5, 17]: 30
Plant response rating, Kochia [5, 18]: 50
Plant response rating, Kochia [5, 19]: 75
Chickweed plant response rating [6, 14]: 100
Plant response rating, Chickweed [6, 15]: 100
Plant response rating, Chickweed [6, 16]: 100
Plant response rating (scale of 0 to 100), Chickweed ([6]; Preemergence, 31 g ai/ha): 100
Plant response rating (scale of 0 to 100), Chickweed ([6]; Preemergence, 62 g ai/ha): 100
Plant response rating, Chickweed [6, 17]: 100
Plant response rating, Chickweed [6, 18]: 100
Plant response rating, Chickweed [6, 19]: 100
Pigweed plant response rating [7, 14]: 100
Plant response rating, Pigweed [7, 15]: 100
Plant response rating, Pigweed [7, 16]: 100
Plant response rating (scale of 0 to 100), Pigweed ([7]; Preemergence, 31 g ai/ha): 100
Plant response rating (scale of 0 to 100), Pigweed ([7]; Preemergence, 62 g ai/ha): 100
Plant response rating, Pigweed [7, 17]: 100
Plant response rating, Pigweed [7, 18]: 100
Plant response rating, Pigweed [7, 19]: 100
Canarygrass plant response rating [8, 14]: 50
Plant response rating, Canarygrass [8, 15]: 80
Plant response rating, Canarygrass [8, 16]: 90
Plant response rating (scale of 0 to 100), Canarygrass ([8]; Preemergence, 31 g ai/ha): 65
Plant response rating (scale of 0 to 100), Canarygrass ([8]; Preemergence, 62 g ai/ha): 85
Plant response rating, Canarygrass [8, 17]: 90
Plant response rating, Canarygrass [8, 18]: 100
Plant response rating, Canarygrass [8, 19]: 75
Galium plant response rating [9, 14]: 100
Plant response rating, Galium [9, 15]: 100
Plant response rating, Galium [9, 16]: 100
Plant response rating (scale of 0 to 100), Galium ([9]; Preemergence, 31 g ai/ha): 0
Plant response rating (scale of 0 to 100), Galium ([9]; Preemergence, 62 g ai/ha): 25
Plant response rating, Galium [9, 17]: 40
Plant response rating, Galium [9, 18]: 85
Plant response rating, Galium [9, 19]: 100
Ryegrass, Italian plant response rating [10, 14]: 80
Plant response rating, Ryegrass, Italian [10, 15]: 90
Plant response rating, Ryegrass, Italian [10, 16]: 90
Plant response rating (scale of 0 to 100), Ryegrass, Italian ([10]; Preemergence, 31 g ai/ha): 40
Plant response rating (scale of 0 to 100), Ryegrass, Italian ([10]; Preemergence, 62 g ai/ha): 75
Plant response rating, Ryegrass, Italian [10, 17]: 90
Plant response rating, Ryegrass, Italian [10, 18]: 100
Plant response rating, Ryegrass, Italian [10, 19]: 85
Wheat, Winter plant response rating [11, 14]: 0
Plant response rating, Wheat, Winter [11, 15]: 5
Plant response rating, Wheat, Winter [11, 16]: 10
Plant response rating (scale of 0 to 100), Wheat, Winter ([11]; Preemergence, 31 g ai/ha): 0
Plant response rating (scale of 0 to 100), Wheat, Winter ([11]; Preemergence, 62 g ai/ha): 0
Plant response rating, Wheat, Winter [11, 17]: 5
Plant response rating, Wheat, Winter [11, 18]: 25
Plant response rating, Wheat, Winter [11, 19]: 0
Blackgrass plant response rating [12, 14]: 65
Plant response rating, Blackgrass [12, 15]: 75
Plant response rating, Blackgrass [12, 16]: 80
Plant response rating (scale of 0 to 100), Blackgrass ([12]; Preemergence, 31 g ai/ha): 20
Plant response rating, Blackgrass [12, 20]: 60
Plant response rating, Blackgrass [12, 17]: 70
Plant response rating, Blackgrass [12, 18]: 85
Plant response rating, Blackgrass [12, 19]: 70
Foxtail, Green plant response rating [13, 14]: 75
Plant response rating, Foxtail, Green [13, 15]: 90
Plant response rating, Foxtail, Green [13, 16]: 100
Plant response rating (scale of 0 to 100), Foxtail, Green ([13]; Preemergence, 31 g ai/ha): 15
Plant response rating (scale of 0 to 100), Foxtail, Green ([13]; Preemergence, 62 g ai/ha): 50
Plant response rating, Foxtail, Green [13, 17]: 100
Plant response rating, Foxtail, Green [13, 18]: 100
Plant response rating, Foxtail, Green [13, 19]: 90
